≈ marks a conversion by molar mass, not a printed value. Where “and” joins values, the source holds several entries; their conditions need not be identical. Equal entries are not always repeated. Where two headings read alike, the source gives them in different places. Marks after values point to notes of the source that are not given here.
Tests used:
[1] = tested on: HepG2 cells; test: HepG2 cell viability assay (MTT), 72 h; assay type: cell-based, human; settings: for IC50: Homo sapiens, HepG2, 72 h incubation, MTT, 0.5% DMSO, read-out: IC50 against HepG2 cells
Experimental: HepG2 cells were plated on 384-well tissue culture treated polystyrene plates at 2000 cells in 25 μl of HepG2 maintenance medium per well. After an overnight incubation at 37°C, the cells were dosed with test compounds in dimethyl sulfoxide (DMSO) and controls over wide ranges of concentrations (Table 1) and incubated for 72 h at 37°C. DMSO was at 0.5% in the final solution. The aqueous solubility of the compounds limited the range of concentrations tested. Cell viability was measured using the Promega CellTiter 96 Non-Radioactive Cell Proliferation Assay (MTT) kit by adding the Dye Solution to each well and incubating for 3 h at 37°C. After incubation, the Solubilization Solution/Stop Mix was added to each well. Plates were incubated at 37°C for 1 h, mixed on a plate shaker for 10 min and then absorbance was read at 570 nm. Cell viability was determined by comparison against control cells in the presence of DMSO only and was measured in three independent replicates for each compound concentration. The IC50 was calculated with GraphPad Prism using a Sigmoidal Dose-response (variable slope) algorithm. Chlorpromazine, a drug with a well-known and characterized hepatotoxicity ([Frötschl et al., 2005]; [Gandhi et al., 2013]; [Morgan et al., 2019]), was used as the positive control.
To evaluate the in vitro toxicity of this series of INH derivatives, the viability of HepG2 cells, a human liver cancer cell line, was determined by the MTT tetrazolium reduction assay ([Riss et al., 2013]), a colorimetric assay to assess cell metabolic activity, and the IC50 value, i.e., the concentration for 50% reduction in cell viability, was obtained for each compound (Supplementary Figure S6). […] The hepatoxicity of INH is well described ([Girling, 1978]; [Wu and Cederbaum, 1996]; [Huang et al., 2003]; [Bhadauria et al., 2007]; [Singh et al., 2011]) and is much lower than that of chlorpromazine.

[2] = tested on: HepG2; settings: cited from earlier work
[3] = molecular target: T1, human serum albumin (HSA) (Homo sapiens, UniProt P02768); settings: for 10-3 K’’b / M-1, HSA binding constant from the variation in amplitude-weighted mean fluorescence lifetime: head prints 10-3 K’’b / M-1, reverse of the dissociation constant
Experimental: (§1) INH and INH derivatives stock solutions were prepared in DMSO. From the stock solutions, appropriate dilutions were prepared so that each compound was added to HSA in PBS at different concentrations ensuring that DMSO was at a fixed concentration of 5% (v/v) in the final solution. […] Three or more independent replicates were prepared and analyzed for each system.
Time-resolved fluorescence measurements were carried out by the single photon counting technique, using a nanoLED N-280 (Horiba Jobin Yvon, Villeneuve D'ascq, France) for the excitation of the protein. […] Ludox® was the scattering agent used to obtain the instrumental response function. The experimental fluorescence intensity decays were analysed with the software TRFA® version 1.4 (Minsk, Belarus). The fluorescence intensity decays, I(t), were analysed by fitting a sum of exponentials, and the decay law was then obtained according to Eq. 1: I(t)= ∑i=1nαi⁡exp(−t/τi) (1) where α i and τ i are the normalized amplitude and lifetime of component i, respectively.
The changes in quantum yield due to processes affecting the fluorescence lifetime were assessed from the amplitude-weighted mean fluorescence lifetime, τ¯ , calculated using Eq. 2: τ¯=∑i=1nαiτi (2)
When used to analyse time-resolved fluorescence data, F is replaced by τ¯ .

[4] = octanol-water, cited from earlier work
[5] = molecular target: warfarin binding site of HSA (Sudlow's binding site I) (Homo sapiens, UniProt P02768); test: Competitive binding with warfarin (HSA Sudlow's binding site I)
Experimental: Warfarin stock solution was also prepared with DMSO.
The interaction of INH and its derivatives with HSA was further examined regarding their putative binding site.
Using the dampening in the fluorescence intensity of warfarin it is possible to retrieve the HSA-compound dissociation constant for the binding site of warfarin (K dc) - Table 3.
From this variation it is possible to retrieve C50, the concentration of compound that displaces half of […]
This concentration is given by the fluorescence intensity corresponding to […]
the intensity of warfarin in water (buffer), which was obtained for warfarin in PBS in the absence of HSA. The C50 value was retrieved for each replicate and the average was used to calculate the Kdc of […]
(1 picture or pasted object on this page, not shown here)

[6] = molecular target: T1, human serum albumin (HSA); settings: for 10-3 K’b / M-1, HSA binding constant from fluorescence intensity variation not accounted for by the decrease in lifetime: head prints 10-3 K’b / M-1, reverse of the dissociation constant
Experimental: as §1
Quartz Suprasil® cuvettes with 1 × 0.4 cm path length were used to gather the spectroscopic data.
The bandwidth was 4 nm in both excitation and emission paths.
Whenever the decrease in τ¯ is smaller than the decrease in the steady-state fluorescence intensity, there are multiple quenching mechanisms responsible for a decrease in fluorescence quantum yield, one affecting the amplitude-weighted mean fluorescence lifetime and the fluorescence intensity alike, and another affecting only the fluorescence intensity (a static quenching mechanism). Therefore, for each data point, the decrease in fluorescence intensity that was not due to a decrease in τ¯ was calculated. These values were used to obtain yet another dissociation constant that corresponds to the binding process affecting only the steady-state fluorescence intensity, also shown in Table 3 (K’d). […] This is a consequence of the much larger relative decrease in fluorescence intensity when compared with the decrease in fluorescence lifetime.
For a static quenching mechanism, K represents the association constant for the formation of non-fluorescent HSA-compound ground-state complex. Therefore, the reverse of K gives an estimate of the dissociation constant. By fitting a straight line to the data in Figure 8 forcing a unitary intercept, i.e., assuming a Stern-Volmer-like behaviour, a reasonable correlation coefficient was obtained in all cases.

[7] = tested on: M. tuberculosis H37Rv ATCC27294 (wt); settings: ref Martins et al., cited from earlier work
[8] = tested on: M. tuberculosis H37Rv ATCC27294 (wt); test: microbe, parasite or virus in culture; assay type: cell-based; parameters: MIC (wt): unit not given here; settings: for MIC: Mycobacterium tuberculosis, wt Mtb H37Rv, tested from 0.03125 to 128 µM; for MIC (wt): Table S1; for activity against the wild-type strain: in words
[9] = assay type: physicochemical; settings: for stability in aqueous solution: pH 7.4; for fluctuation of the absorption spectra in the UV region: over 3 days, PBS pH 7.4 with 5 % DMSO, N33red at 240 nm, N34red at 269 nm
Experimental: INH-C10, N33 and N34 were obtained as fully described in reference ([Martins et al., 2014]). N33red and N34red were obtained by reduction of the parent Schiff base. Sodium cyanoborohydride (2 equiv.) was added portion wise to a solution of N33 or N34 in hot methanol. The reaction mixture was acidified with methanolic HCl 5M until pH 3; at that point the solution color changed to dark yellow. The reaction was kept under reflux and monitored by TLC until the starting material was consumed. The solvent was then evaporated under reduced pressure, giving an orange-yellow oil. This residue was dissolved in water and basified to pH > 7 by addition of a few drops of NaOH 6 M, to break up the possible cyanoborate adducts. The solution was then washed with brine and extracted several times with dichloromethane, the combined organic extracts were dried with MgSO4 and the solvent evaporated under reduced pressure affording crude yellowish solids. Pure N33red and N34red were obtained after column chromatography with Et2O/MeOH 96.5:3.5 and by recrystallization from CH2Cl2/petroleum ether 2:3, respectively (adapted from ([Borch et al., 1971])). Both N33red and N34red are very stable in aqueous solution (PBS with 5% DMSO) for at least 48 h (Supplementary Figure S5).
Figure S5 – Electronic absorption spectra of N33red and N34red in PBS buffer pH 7.4 with 5 % DMSO
were monitored over 3 days. The fluctuation of the spectra in the UV region of N33red at 240 nm was
less than 1.2% while for N34red at 269 nm was less than 2.5%. The time dependence of the absorbance
uncertainty, thus confirming the stability of both compounds for at least 3 days.

[10] = Octanol-water partition coefficient, shake-flask method; assay type: physicochemical; settings: pH 7.5, room temperature, preliminary assessment
Experimental: Lipophilicity was evaluated as log Po/w, the octanol-water partition coefficient obtained by the shake-flask method ([Ràfols et al., 2012]; [Martins et al., 2014]), and as log Kp(NaDS/w) the partition coefficient towards sodium dodecyl sulfate (NaDS) anionic micelles obtained by differential spectrophotometry for INH, INH-C10, N33 and N34 in previous works ([Ràfols et al., 2012]; [Martins et al., 2014]; [Santos et al., 2020]). […] For both compounds, samples were dissolved in water-saturated octanol at pH 7.5 (KH2PO4/NaOH) to guarantee negligible ionization. The partition to octanol-saturated aqueous buffer was evaluated, at room temperature, using a volume ratio, ro/w, of 5/30 and 10/30 for N33red and 2.5/40, 5/40 for N34red, after sonication of the solutions and partition on a mechanical tumbler. Equilibrium concentrations were determined by UV-Vis spectrophotometry between 200 and 500 nm after phase separation.

[11] = molecular target: T1, human serum albumin (HSA); parameters: purchased Merck (Sigma-Aldrich) A9511; method as in Ascenzi et al., 2011; settings: ref Ascenzi et al., 2011; read-out: K d for HSA previously reported; cited from earlier work
[12] = head prints 10-3 Kbc / M-1, equimolar HSA and warfarin, reverse of the dissociation constant
[13] = HepG2, 72 h incubation, ref Lupien et al., 2018

Chain of warfarin binding site of HSA (Sudlow's binding site I) (P02768 25-609): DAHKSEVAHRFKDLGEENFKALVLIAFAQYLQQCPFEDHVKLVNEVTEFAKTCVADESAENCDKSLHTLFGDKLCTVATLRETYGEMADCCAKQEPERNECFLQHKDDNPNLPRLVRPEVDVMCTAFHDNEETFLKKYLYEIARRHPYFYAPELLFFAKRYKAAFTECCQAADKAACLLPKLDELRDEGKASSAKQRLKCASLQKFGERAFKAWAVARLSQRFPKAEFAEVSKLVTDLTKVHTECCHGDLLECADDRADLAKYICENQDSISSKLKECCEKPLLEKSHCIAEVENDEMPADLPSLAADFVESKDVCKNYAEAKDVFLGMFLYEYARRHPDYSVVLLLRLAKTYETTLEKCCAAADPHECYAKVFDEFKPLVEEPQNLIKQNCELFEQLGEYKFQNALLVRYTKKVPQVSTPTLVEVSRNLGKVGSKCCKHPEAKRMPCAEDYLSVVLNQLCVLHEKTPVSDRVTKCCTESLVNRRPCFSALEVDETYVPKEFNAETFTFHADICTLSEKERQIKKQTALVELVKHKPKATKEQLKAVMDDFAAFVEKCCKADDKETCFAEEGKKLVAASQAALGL
T1 sequence (P02768 25-609): as above

Row | SMILES | IC50 [1] | Kd [3] | Kd [5] | 10-3 Kbc / M-1, binding constant for the warfarin binding site [5, 12] | Kd [6] | 10-3 K’b / M-1, HSA binding constant from fluorescence intensity variation not accounted for by the decrease in lifetime [6] | MIC (wt) ([7]; wt Mtb H37Rv, 2014) | also measured
1 | CN(C)CCCN1c2ccccc2Sc2ccc(Cl)cc21 [Chlorpromazine, reference compound] | 13.9 µM |  |  |  |  |  |  | IC50 ([2]; same cell line (HepG2), 24 h incubation, ref Wang et al., 2002): 34.7 µM
2 | COC(=O)c1ccc(/C=N/NC(=O)c2ccncc2)cc1 [Compound N33, methyl (E)-4-((2-isonicotinoylhydrazineylidene)methyl)benzoate] | > 25 µM | 80 ± 60 µM | 54 ± 4 µM | 18.5 ± 1.3 10^3 M-1 | 160 µM and 200 µM and 120 µM | 5.00 ± 2.50 10^3 M-1 | 1.06 ^a µM | 10-3 K’’b / M-1, HSA binding constant from the variation in amplitude-weighted mean fluorescence lifetime [3]: 12.5 ± 9.4 10^3 M-1; log P o/w ± SD ([4]; ref Martins et al., 2014): 1.32 ± 0.06 ^c
3 | COC(=O)c1ccc(CNNC(=O)c2ccncc2)cc1 [Compound N33red, methyl 4-((2-isonicotinoylhydrazinyl)methyl)benzoate] | > 200 µM |  | 900 ± 300 µM |  | 600 µM (2×) and 560 µM | 1.77 ± 0.65 10^3 M-1 |  | Kd ([5]; 10-3 Kbc / M-1, binding constant for the warfarin binding site, head prints 10-3 Kbc / M-1, equimolar HSA and warfarin, reverse of the dissociation constant): 746 µM; MIC [8]: 2 µM (≈ 0.571 µg/mL); MIC (wt) [8]: 0.6; activity against the wild-type strain [8]: active; stability in aqueous solution ([9]; 48 h): at least 48 h; stability in aqueous solution ([9]; 3 days): at least 3 days; fluctuation of the absorption spectra in the UV region [9]: less than 1.2%; logP [10]: 1.33 ± 0.04
4 | O=C(N/N=C/c1ccc(Oc2ccccc2)cc1)c1ccncc1 [Compound N34, (E)-N'-(4-phenoxybenzylidene)isonicotinohydrazide] | > 200 µM | 521 µM | 128 ± 5 µM | 7.8 ± 0.3 10^3 M-1 | 130 µM and 110 µM and 70 µM |  | 0.95 ^a µM | 
5 | O=C(NNCc1ccc(Oc2ccccc2)cc1)c1ccncc1 [Compound N34red, N'-(4-phenoxybenzyl)isonicotinohydrazide] | 48.5 µM | 730 µM | 340 ± 20 µM | 2.99 ± 0.17 10^3 M-1 | 150 µM and 140 µM and 90 µM |  |  | MIC [8]: 1 µM (≈ 0.319 µg/mL); MIC (wt) [8]: 0.3; activity against the wild-type strain [8]: active; stability in aqueous solution ([9]; 48 h): at least 48 h; stability in aqueous solution ([9]; 3 days): at least 3 days; fluctuation of the absorption spectra in the UV region [9]: less than 2.5%; logP [10]: 2.6 ± 0.2
6 | NNC(=O)c1ccncc1 [INH, isonicotinoylhydrazide, reference compound] | > 200 µM |  | 4550 ± 50 µM | 0.22 ± 0.01 10^3 M-1 | 2.72 mM (2×) and 1.65 mM | 0.37 ± 0.01 10^3 M-1 | 0.29 ^a µM | effect on HepG2 cell viability ([1]; up to 200 µM, 72 h): did not significantly affect HepG2 cell viability; log P o/w ± SD ([4]; ref Ràfols et al., 2012): −0.85 ± 0.01 ^b; Kd [11]: 390 µM; Kd ([6]; K d for HSA, fluorescence intensity corrected for inner filter effects, steady-state fluorescence, text and Figure S7): ~1000 µM; MIC (wt) ([7]; Table S1, 2014 (per Table 2)): 0.04 g/mL (≈ 292 mM)
7 | CCCCCCCCCC(=O)NNC(=O)c1ccncc1 [INH-C10, N′-decanoylisonicotinoylhydrazide] | > 25 µM | 120 ± 3 µM | 400 ± 200 µM | 2.43 ± 0.86 10^3 M-1 | 46 µM and 50 µM and 70 µM | 18.6 ± 5.58 10^3 M-1 | 0.38 ^a µM | 10-3 K’’b / M-1, HSA binding constant from the variation in amplitude-weighted mean fluorescence lifetime [3]: 8.33 ± 0.21 10^3 M-1; log P o/w ± SD ([4]; ref Ràfols et al., 2012): 3.5 ± 0.2 ^b
8 | CO[C@H]1/C=C/O[C@@]2(C)Oc3c(C)c(O)c4c(O)c(c(/C=N/N5CCN(C)CC5)c(O)c4c3C2=O)NC(=O)/C(C)=C\C=C\[C@H](C)[C@H](O)[C@@H](C)[C@@H](O)[C@@H](C)[C@H](OC(C)=O)[C@@H]1C [Rifampin] |  |  |  |  |  |  |  | IC50 ([2]; ref Vahdati-Mashhadian et al., 2013): 25.5 µM
9 | COc1nc2ccc(Br)cc2cc1[C@@H](c1ccccc1)[C@@](O)(CCN(C)C)c1cccc2ccccc12 [bedaquiline] |  |  |  |  |  |  |  | IC50 [2, 13]: 17.4 µM
10 | C[C@]1(COc2ccc(N3CCC(Oc4ccc(OC(F)(F)F)cc4)CC3)cc2)Cn2cc([N+](=O)[O-])nc2O1 [delamanid] |  |  |  |  |  |  |  | IC50 [2, 13]: 98.9 µM

Source: publication PMC9114799, “In vitro Evaluation of Isoniazid Derivatives as Potential Agents Against Drug-Resistant Tuberculosis” (Frontiers in Pharmacology, 2022)
